Reference: US9115137B2, “2,3,4,5-tetrahydro-1H-pyrido[4,3-B]indole compounds and methods of use thereof” (priority 2008, dated 2015)
Read-outs that look alike come from different tables or passages of the source.

Experiments:
[1] = target: T1, human recombinant adrenergic α2B receptor (Homo sapiens, UniProt P18089); assay: Adrenergic α2B radioligand binding ([3H]Rauwolscine); conditions: read-out: Adrenergic (1 μM) α2B, percent inhibition of specific binding
T1 construct: expressed in transfected cells; host or cells: CHO-K1 cells
T1 sequence (P18089 1-450): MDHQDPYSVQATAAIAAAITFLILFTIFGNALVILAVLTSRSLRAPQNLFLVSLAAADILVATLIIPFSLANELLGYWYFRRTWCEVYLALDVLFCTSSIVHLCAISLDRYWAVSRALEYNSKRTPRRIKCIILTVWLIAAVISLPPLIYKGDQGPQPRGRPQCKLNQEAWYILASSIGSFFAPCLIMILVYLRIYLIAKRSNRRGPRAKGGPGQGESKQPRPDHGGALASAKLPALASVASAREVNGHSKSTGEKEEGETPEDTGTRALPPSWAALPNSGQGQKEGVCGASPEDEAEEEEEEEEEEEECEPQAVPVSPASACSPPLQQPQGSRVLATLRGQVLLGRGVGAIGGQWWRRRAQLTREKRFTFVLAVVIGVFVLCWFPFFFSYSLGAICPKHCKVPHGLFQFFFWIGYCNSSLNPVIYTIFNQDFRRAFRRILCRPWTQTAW
Description: To evaluate in radioligand binding assays the activity of compounds of the invention, human recombinant adrenergic α2B receptor expressed in Chinese hamster ovary (CHO-K1) cells (Uhlen S et al. Eur. J. Pharmacol. 343(1):93, 1998) in a modified Tris-HCl buffer (50 mM Tris-HCl, pH 7.4, 12.5 mM MgCl2, 1 mM EDTA, 0.2% BSA) was used. Compounds of the invention were incubated with 2.5 nM [3H]Rauwolscine for 60 minutes at 25° C. Non-specific binding was estimated in the presence of 10 μM Prozosin. Receptor proteins were filtered and washed, the filters were then counted to determine [^3H]Rauwolscine specifically bound. Compounds were screened at 1 μM or lower, using 1% DMSO as vehicle. Biochemical assay results are presented as the percent inhibition of specific binding in Table 6.

[2] = target: T2, human recombinant adrenergic α2A receptor (Homo sapiens, UniProt P08913); assay: Adrenergic α2A radioligand binding ([3H]MK-912); conditions: read-out: Adrenergic (1 μM) α2A, percent inhibition of specific binding
T2 construct: expressed in transfected cells; host or cells: insect Sf9 cells
T2 sequence (P08913 1-465): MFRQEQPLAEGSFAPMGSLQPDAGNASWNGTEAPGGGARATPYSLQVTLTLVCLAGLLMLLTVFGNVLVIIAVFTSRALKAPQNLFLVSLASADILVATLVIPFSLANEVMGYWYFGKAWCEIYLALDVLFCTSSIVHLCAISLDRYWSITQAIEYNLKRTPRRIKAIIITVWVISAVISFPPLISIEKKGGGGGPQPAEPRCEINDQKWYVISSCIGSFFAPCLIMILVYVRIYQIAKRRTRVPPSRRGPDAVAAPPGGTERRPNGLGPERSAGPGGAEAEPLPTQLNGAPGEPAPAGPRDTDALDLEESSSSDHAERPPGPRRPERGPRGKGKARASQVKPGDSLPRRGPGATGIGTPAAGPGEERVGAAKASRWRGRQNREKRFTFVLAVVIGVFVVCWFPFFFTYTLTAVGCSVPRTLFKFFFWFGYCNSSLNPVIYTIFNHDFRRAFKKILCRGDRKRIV
Description: To evaluate in radioligand binding assays the activity of compounds of the invention, human recombinant adrenergic α2A receptor expressed in insect Sf9 cells (Uhlen S et al. J Pharmacol Exp Ther. 271:1558, 1994) in a modified Tris-HCl buffer (50 mM Tris-HCl, pH 7.4, 12.5 mM MgCl2, 2 mM EDTA) was used. Compounds of invention were incubated with 1 nM [^3H]MK-912 for 60 minutes at 25° C. MK912 is (2S-trans)-1,3,4,5′,6,6′,7,12b-octahydro-1′,3′-dimethyl-spiro[2H-benzofuro[2,3-a]quinolizine-2,4′(1′H)-pyrimidin]-2′(3′H)-one hydrochloride Non-specific binding was estimated in the presence of 10 μM WB-4101 (2-(2,6-Dimethoxyphenoxyethyl)aminomethyl-1,4-benzodioxane hydrochloride). Receptor proteins were filtered and washed, the filters were then counted to determine [^3H]MK-912 specifically bound. Compounds were screened at 1 μM or lower, using 1% DMSO as vehicle. Biochemical assay results are presented as the percent inhibition of specific binding in Table 6.

[3] = target: T3, human recombinant serotonin (5-Hydroxytryptamine) 5-HT2C receptor (Homo sapiens, UniProt P28335); assay: Serotonin 5-HT2C radioligand binding ([3H]Mesulergine); conditions: read-out: Serotonin (1 μM) 5-HT2C, percent inhibition of specific binding
T3 construct: expressed in transfected cells; host or cells: CHO-K1 cells
T3 sequence (P28335 33-458): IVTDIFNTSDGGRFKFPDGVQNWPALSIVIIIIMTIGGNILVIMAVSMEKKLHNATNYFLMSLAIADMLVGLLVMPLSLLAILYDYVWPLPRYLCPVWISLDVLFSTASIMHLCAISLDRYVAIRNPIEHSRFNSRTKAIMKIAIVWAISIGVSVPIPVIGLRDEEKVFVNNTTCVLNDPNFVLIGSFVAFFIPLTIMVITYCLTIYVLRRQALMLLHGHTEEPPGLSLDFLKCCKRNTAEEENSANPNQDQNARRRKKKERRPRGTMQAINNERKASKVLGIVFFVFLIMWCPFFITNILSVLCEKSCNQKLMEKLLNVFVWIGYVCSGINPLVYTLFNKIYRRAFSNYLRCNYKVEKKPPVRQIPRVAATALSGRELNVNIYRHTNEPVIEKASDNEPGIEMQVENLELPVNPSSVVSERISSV
Description: To evaluate in radioligand binding assays the activity of compounds of the invention, human recombinant serotonin (5-Hydroxytryptamine) 5-HT2C receptor expressed in Chinese hamster ovary (CHO-K1) cells (Wolf, W. A. and Schutz, J. S., J. Neurochem. 69:1449, 1997) in a modified Tris-HCl buffer (50 mM Tris-HCl, pH 7.4, 0.1% Ascorbic Acid, 10 μM Pargyline) was used. Compounds of the invention were incubated with 1 nM [^3H]Mesulergine for 60 minutes at 25° C. Non-specific binding was estimated in the presence of 1 μM Mianserin. Receptor proteins were filtered and washed, the filters were then counted to determine [^3H]Mesulergine specifically bound. Compounds were screened at 1 μM or lower, using 1% DMSO as vehicle. Biochemical assay results are presented as the percent inhibition of specific binding in Table 7.

[4] = compound at 1 μM, insect Sf9 cells

CCOC(=O)CCn1c2c(c3cc(C)ccc31)CN(C)CC2 [CD1, ethyl 3-(1,2,3,4-tetrahydro-2,8-dimethylpyrido[4,3-b]indol-5-yl)propanoate]
inhibition at 1 µM ([1]; compound at 1 μM, CHO-K1 cells): 95%
inhibition at 1 µM [2, 4]: 62%
inhibition at 1 µM ([3]; compound at 1 μM, CHO-K1 cells): 93%

CCOC(=O)CCn1c2c(c3cc(Cl)ccc31)CN(C)CC2 [CD17, ethyl 3-(8-chloro-1,2,3,4-tetrahydro-2-methylpyrido[4,3-b]indol-5-yl)propanoate]
inhibition at 1 µM ([1]; compound at 1 μM, CHO-K1 cells): 99%
inhibition at 1 µM [2, 4]: 87%
inhibition at 1 µM ([3]; compound at 1 μM, CHO-K1 cells): 96%

CN1CCc2c(c3cc(Cl)ccc3n2CC(=O)O)C1 [CD46, 2-(8-chloro-1,2,3,4-tetrahydro-2-methylpyrido[4,3-b]indol-5-yl)acetic acid]
inhibition at 1 µM ([1]; compound at 1 μM, CHO-K1 cells): 35%
inhibition at 1 µM [2, 4]: 13%
inhibition at 1 µM ([3]; compound at 1 μM, CHO-K1 cells): 30%

Cc1ccc2c(c1)c1c(n2CCC(=O)O)CCN(C)C1 [CD47, 3-(1,2,3,4-tetrahydro-2,8-dimethylpyrido[4,3-b]indol-5-yl)propanoic acid]
inhibition at 1 µM ([1]; compound at 1 μM, CHO-K1 cells): 24%
inhibition at 1 µM [2, 4]: 17%
inhibition at 1 µM ([3]; compound at 1 μM, CHO-K1 cells): 25%

CN1CCc2c(c3cc(Cl)ccc3n2CCC(=O)O)C1 [CD55, 3-(8-chloro-1,2,3,4-tetrahydro-2-methylpyrido[4,3-b]indol-5-yl)propanoic acid]
inhibition at 1 µM ([1]; compound at 1 μM, CHO-K1 cells): 10%
inhibition at 1 µM [2, 4]: -2%
inhibition at 1 µM ([3]; compound at 1 μM, CHO-K1 cells): 11%

CCOC(=O)Cn1c2c(c3cc(C)ccc31)CN(C)CC2 [CD57, ethyl 2-(1,2,3,4-tetrahydro-2,8-dimethylpyrido[4,3-b]indol-5-yl)acetate]
inhibition at 1 µM ([1]; compound at 1 μM, CHO-K1 cells): 65%
inhibition at 1 µM [2, 4]: 45%
inhibition at 1 µM ([3]; compound at 1 μM, CHO-K1 cells): 96%

Cc1ccc2c(c1)c1c(n2CC(=O)O)CCN(C)C1 [CD58, 2-(1,2,3,4-tetrahydro-2,8-dimethylpyrido[4,3-b]indol-5-yl)acetic acid]
inhibition at 1 µM ([1]; compound at 1 μM, CHO-K1 cells): -6%
inhibition at 1 µM [2, 4]: -7%
inhibition at 1 µM ([3]; compound at 1 μM, CHO-K1 cells): -19%

Cc1ccc2c(c1)c1c(n2CC#N)CCN(C)C1 [CD61, 2-(1,2,3,4-tetrahydro-2,8-dimethylpyrido[4,3-b]indol-5-yl)acetonitrile]
inhibition at 1 µM ([1]; compound at 1 μM, CHO-K1 cells): 89%
inhibition at 1 µM [2, 4]: 73%
inhibition at 1 µM ([3]; compound at 1 μM, CHO-K1 cells): 73%

Cc1ccc2c(c1)c1c(n2CCN)CCN(C)C1 [CD62, 2-(1,2,3,4-tetrahydro-2,8-dimethylpyrido[4,3-b]indol-5-yl)ethanamine]
inhibition at 1 µM ([1]; compound at 1 μM, CHO-K1 cells): 32%
inhibition at 1 µM [2, 4]: 42%
inhibition at 1 µM ([3]; compound at 1 μM, CHO-K1 cells): 28%

C#CCn1c2c(c3cc(C)ccc31)CN(C)CC2 [CD73, 2,8-dimethyl-5-(prop-2-ynyl)-2,3,4,5-tetrahydro-1H-pyrido[4,3-b]indole]
inhibition at 1 µM ([1]; compound at 1 μM, CHO-K1 cells): 101%
inhibition at 1 µM [2, 4]: 70%
inhibition at 1 µM ([3]; compound at 1 μM, CHO-K1 cells): 92%

CN1CCc2c(c3cc(Cl)ccc3n2CCCO)C1 [CD87, 3-(8-chloro-2-methyl-3,4-dihydro-1H-pyrido[4,3-b]indol-5(2H)-yl)propan-1-ol]
inhibition at 1 µM ([1]; compound at 1 μM, CHO-K1 cells): 103%
inhibition at 1 µM [2, 4]: 79%
inhibition at 1 µM ([3]; compound at 1 μM, CHO-K1 cells): 79%

CN1CCc2c(c3cc(Cl)ccc3n2CCBr)C1 [CD88, 5-(2-bromoethyl)-8-chloro-2-methyl-2,3,4,5-tetrahydro-1H-pyrido[4,3-b]indole]
inhibition at 1 µM [1]: 104%
inhibition at 1 µM [2]: 80%
inhibition at 1 µM [3]: 84%

CN1CCc2c(c3cc(Cl)ccc3n2CCO)C1 [CD89, 2-(8-chloro-2-methyl-3,4-dihydro-1H-pyrido[4,3-b]indol-5(2H)-yl)ethanol]
inhibition at 1 µM ([1]; compound at 1 μM, CHO-K1 cells): 100%
inhibition at 1 µM [2, 4]: 70%
inhibition at 1 µM ([3]; compound at 1 μM, CHO-K1 cells): 84%

Cc1ccc2c(c1)c1c(n2CCO)CCN(C)C1 [CD90, 2-(2,8-dimethyl-3,4-dihydro-1H-pyrido[4,3-b]indol-5(2H)-yl)ethanol]
inhibition at 1 µM ([1]; compound at 1 μM, CHO-K1 cells): 61%
inhibition at 1 µM [2, 4]: 22%
inhibition at 1 µM ([3]; compound at 1 μM, CHO-K1 cells): 91%

Cc1ccc2c(c1)c1c(n2CCBr)CCN(C)C1 [CD91, 5-(2-bromoethyl)-2,8-dimethyl-2,3,4,5-tetrahydro-1H-pyrido[4,3-b]indole]
inhibition at 1 µM ([1]; compound at 1 μM, CHO-K1 cells): 102%
inhibition at 1 µM [2, 4]: 86%
inhibition at 1 µM ([3]; compound at 1 μM, CHO-K1 cells): 98%

Cc1ccc2c(c1)c1c(n2CCC#N)CCN(C)C1 [CD92, 3-(2,8-dimethyl-3,4-dihydro-1H-pyrido[4,3-b]indol-5(2H)-yl)propanenitrile]
inhibition at 1 µM ([1]; compound at 1 μM, CHO-K1 cells): 94%
inhibition at 1 µM [2, 4]: 76%
inhibition at 1 µM ([3]; compound at 1 μM, CHO-K1 cells): 61%

CN1CCc2c(c3cc(Cl)ccc3n2CCC#N)C1 [CD94, 3-(8-chloro-2-methyl-3,4-dihydro-1H-pyrido[4,3-b]indol-5(2H)-yl)propanenitrile]
inhibition at 1 µM ([1]; compound at 1 μM, CHO-K1 cells): 86%
inhibition at 1 µM [2, 4]: 73%
inhibition at 1 µM ([3]; compound at 1 μM, CHO-K1 cells): 71%

CNC(=O)CCn1c2c(c3cc(C)ccc31)CN(C)CC2 [Compound 1, 3-(1,2,3,4-tetrahydro-2,8-dimethylpyrido[4,3-b]indol-5-yl)-N-methylpropanamide]
inhibition at 1 µM ([1]; compound at 1 μM, CHO-K1 cells): 51%
inhibition at 1 µM [2, 4]: 18%
inhibition at 1 µM ([3]; compound at 1 μM, CHO-K1 cells): 20%

CCNC(=O)CCn1c2c(c3cc(C)ccc31)CN(C)CC2 [Compound 2, N-ethyl-3-(1,2,3,4-tetrahydro-2,8-dimethylpyrido[4,3-b]indol-5-yl)propanamide]
inhibition at 1 µM ([1]; compound at 1 μM, CHO-K1 cells): 55%
inhibition at 1 µM [2, 4]: 35%
inhibition at 1 µM ([3]; compound at 1 μM, CHO-K1 cells): -5%

Cc1ccc2c(c1)c1c(n2CCC(=O)NC2CCCCC2)CCN(C)C1 [Compound 3, N-cyclohexyl-3-(1,2,3,4-tetrahydro-2,8-dimethylpyrido[4,3-b]indol-5-yl)propanamide]
inhibition at 1 µM ([1]; compound at 1 μM, CHO-K1 cells): 80%
inhibition at 1 µM [2, 4]: 14%
inhibition at 1 µM ([3]; compound at 1 μM, CHO-K1 cells): 29%

Cc1ccc2c(c1)c1c(n2CCC(=O)NC2CCCC2)CCN(C)C1 [Compound 4, N-cyclopentyl-3-(1,2,3,4-tetrahydro-2,8-dimethylpyrido[4,3-b]indol-5-yl)propanamide]
inhibition at 1 µM ([1]; compound at 1 μM, CHO-K1 cells): 93%
inhibition at 1 µM [2, 4]: 45%
inhibition at 1 µM ([3]; compound at 1 μM, CHO-K1 cells): 36%
